In patent US11655256B1, “Processes for making a solid-state form of relugolix” (Johnson Matthey Public Limited Company, priority 2020, dated 2023):
One block for each compound: values may come before it.

What was measured:
Format in all cases: physicochemical
[1] = Dynamic vapor sorption (DVS)
Experimental: DVS samples are analyzed using a TA Instruments Q5000SA gravimetric water sorption analyzer. The relative humidity is adjusted between about 0-95% and the weight of the sample is continuously monitored and recorded with respect to the relative humidity and time.

[2] = Stability on prolonged drying under vacuum; conditions: about 2 days under vacuum at about 70° C.
Experimental: Form A of the DMF solvate of relugolix is stable, i.e., it is unchanged after prolonged drying (e.g., about 2 days) under vacuum at about 70° C.

[3] = Stability under high humidity at ambient temperatures; conditions: about 97% humidity, over a month

DVS weight % change ([1]; relative humidity (RH) levels between 0 to 90%): about 6%
Structure (SMILES): CONC(=O)Nc1ccc(-c2sc3c(c2CN(C)C)c(=O)n(-c2ccc(OC)nn2)c(=O)n3Cc2c(F)cccc2F)cc1 [Form T of anhydrous relugolix, 1-[4-[1-[(2,6-difluorophenyl)-methyl]-5-[(dimethylamino)methyl]-3-(6-methoxypyridazin-3-yl)-2,4-dioxothieno-[2,3-d]pyrimidin-6-yl]phenyl]-3-methoxyurea]

stability after prolonged drying [2]: unchanged
stability under humidity [3]: remains unchanged
DVS loss of mass ([1]; at about 90% RH): about 1%
Structure (SMILES): CONC(=O)Nc1ccc(-c2sc3c(c2CN(C)C)c(=O)n(-c2ccc(OC)nn2)c(=O)n3Cc2c(F)cccc2F)cc1 [Form A of the DMF solvate of relugolix, 1-[4-[1-[(2,6-difluorophenyl)-methyl]-5-[(dimethylamino)methyl]-3-(6-methoxypyridazin-3-yl)-2,4-dioxothieno-[2,3-d]pyrimidin-6-yl]phenyl]-3-methoxyurea]

stability at various humidity levels ([1]; evidenced by XRPD after DVS): remains stable
DVS weight loss ([1]; relative humidity levels between about 0 to about 95%): about 7%
Structure (SMILES): CONC(=O)Nc1ccc(-c2sc3c(c2CN(C)C)c(=O)n(-c2ccc(OC)nn2)c(=O)n3Cc2c(F)cccc2F)cc1 [Form B of anhydrous relugolix, 1-[4-[1-[(2,6-difluorophenyl)-methyl]-5-[(dimethylamino)methyl]-3-(6-methoxypyridazin-3-yl)-2,4-dioxothieno-[2,3-d]pyrimidin-6-yl]phenyl]-3-methoxyurea]
